Laboratory results taken from US20110053860A1, “COX-2 function and wound healing” (priority 2001, published 2011).

Columns and labels:
[1] = male rats, single drug dose; cited from earlier work
[2] = tested on: rat closed femur fracture model; assay: Torsional mechanical testing of fractured femurs; type: in vivo, male Sprague-Dawley rats; settings: for normalized shear stress / normalized torsional rigidity / normalized peak torque / normalized maximum shear stress: percentage of contralateral unfractured femur; for normalized shear stress: no drug 36; for Shear Modulus, mean / Peak Torque (Tmax), mean: fractured femur; for Peak Torque (Tmax), mean: not normalized; for Mal-Union (Stage III), frequency / Non-Union (Stage I/II), frequency / Union (Stage IV), frequency: mechanically tested fractured femurs at 8 weeks post-fracture; for normalized maximum shear stress: no drug 48; for effect on fracture healing at the dose and treatment regime used: daily gavage, indomethacin 1 mg/kg, celecoxib 4 mg/kg, rofecoxib 3 mg/kg
Procedure: (§1) A total of 253 male Sprague-Dawley rats (584.+−0.62 g) were fed a standard diet and kept caged separately in a constant temperature and humidity environment. All rats were 6-9 months old at the beginning of the experiment. Drugs were administered daily by gavage beginning two days prior to fracture. Animals were randomly selected for each treatment group. […] No drug (control) rats were not initially gavaged but later rats were gavaged with water and no difference was noted between the no drug rats that had been gavaged and those that had not. No statistically significant differences were found in animal weight changes during the experiments.
(§2) The rats were anesthetized by intraperitoneal injection of ketamine (40 mg/kg) and xylazine (5 mg/kg). Under aseptic conditions, a medial parapatellar incision (0.4-0.5 cm) was made in the right hindlimb and the patella was dislocated laterally. The medullary canal was entered through the intercondylar notch and reamed with an 18-gauge needle. A 1.1 mm stainless steel pin (Small Parts Inc., Miami Lakes, Fla.) was then inserted into the canal and secured in the proximal part of the greater trochanter by tamping. The distal portion of the pin was then cut flush with the femoral condyles and the patella dislocation was reduced. The soft tissue and skin were closed with 4-0 vicryl sutures. After closing, the diaphysis of the pinned femur was fractured by means of a three-point bending device as described by Bonnarens and Einhorn (Bonnarens and Einhorn 1984).
Animals within each treatment group were sacrificed at 4, 6, and 8 weeks post-fracture by CO2 asphyxiation. Animals with oblique, comminuted, or infected fractures were not used for mechanical testing. Both femora were removed and cleaned of all soft tissue leaving the fracture callus undisturbed and then immediately processed for mechanical testing. The samples were wrapped in saline soaked gauze to prevent dehydration between steps. Measurements of the femora were taken using digital calipers to determine femur length and external callus dimensions. The intramedullary pin was removed from the fractured femur and a 1 mm-diameter stainless steel pin (˜0.8 cm length) was inserted at the proximal and distal end perpendicular to the long axis of the bone to prevent slipping in the potting material. The intact femur was also pinned as described above. The femoral ends were potted in 1-inch hexnuts using a low melt temperature metal (Wood's metal, Alfa Aesar, Ward Mill, Mass.). Once potted, the gage length (L) of each femur was measured. Torsional testing was conducted using a servohydraulic testing machine (MTS, Eden, Praire, Minn.) with a 20 Nm reaction torque cell (Interface, Scottsdale, Ariz.). The testing was carried out to failure at a rate of 2°/sec and a data recording rate of 20 Hz. Both the fractured and intact femora were tested in internal rotation in proper anatomic orientation. The peak torque and angle at failure were calculated from the load-deformation curves. Internal fracture callus dimensions were measured after mechanical testing. From the callus dimensions, the polar moment of inertia (J) was calculated based upon a hollow ellipse model (Bell et al. 1941; Engesaeter et al. 1978). The equations used to derive torsional rigidity, shear stress, shear modulus, and J were as follows (Popov 1968): (1) Torsional Rigidity: (Tmax·L)/φ where Tmax is the peak torque value in Nmm, L is the gage length in mm, and φ is the angle at failure in radians. (2) Shear Stress: (Tmax·Rmax)/J where Rmax is the largest radial dimension of the fracture callus in mm (ao) and J is the polar moment of inertia. […]

[3] = tested on: rat closed femur fracture model; assay: Radiographic analysis of femur fracture healing in NSAID treated rats; type: in vivo, male Sprague-Dawley rats; settings: for average radiograph score (union 1 point, mal-union 0.5 points, non-union 0 points): 8-week post-fracture radiographs, 7 blinded observers, control rats 0.71
Procedure: A total of 253 male Sprague-Dawley rats (584.+−0.62 g) were fed a standard diet and kept caged separately in a constant temperature and humidity environment. All rats were 6-9 months old at the beginning of the experiment. Drugs were administered daily by gavage beginning two days prior to fracture. Animals were randomly selected for each treatment group.
as §2
Radiographs were made post-fracture to confirm the position and quality of each fracture and at sacrifice to determine the degree of healing. In addition several rats were selected randomly to produce serial radiographs (at least 2 rats per treatment group). Radiographs were made of these rats weekly under anesthesia until the experimental endpoint (8 weeks). Radiographs of mice were also made under anesthesia. All radiographs were made using a 43805N Faxitron (Hewlett-Packard, McMinnville, Oreg.) and Kodak MinR-2000 mammography film.
Radiographs were made immediately following fracture production and then every week till the end point of the experiments (8 weeks post-fracture).
In addition to the serial radiographs made for certain rats, all animals in this study were examined radiographically immediately post-fracture and when euthanized. A random, blinded sample of the 8-week post-fracture radiographs were independently examined by 7 observers and scored as a union (1 point), mal-union (0.5 points), or non-union (0 points).

[4] = tested on: rat closed femur fracture model; assay: Histology of fracture callus; type: in vivo, male Sprague-Dawley rats; settings: for histology of the healing femur fractures compared to untreated control rat: 2 weeks post-fracture; for cartilage in the fracture callus: 3 and 4 weeks post-fracture; for healing of fractured femurs by histology: 6 and 8 weeks post-fracture
Procedure: as §1, §2
Rats were sacrificed at 2, 3, 4, 6, and 8 weeks post-fracture by CO2 asphyxiation. Both femora were resected and the stainless steel pin was removed from the medullary canal. The harvested femora were fixed in 10% buffered formalin and embedded in polymethylmethacrylate following standard histological techniques for calcified tissue. The samples were sectioned sagitally through the fracture callus using an Isomet diamond saw (Buehler Ltd., Lake Bluff, Ill.), mounted on plexiglass slides, and polished to a thickness of 100 μ.m. The slides were then stained with van Gieson's picrofuchsin and Stevenel's blue in order to identify new bone growth and cartilage formation (Maniatopoulos et al. 1986). Mice femora were fixed, decalcified, paraffin embedded, sectioned, and stained with Masson's trichrome stain. The samples were viewed and photomicrographs were taken using an Olympus BH2-RFCA microscope or an Olympus SZ40 microscope.

[5] = humans, depending upon drug dose; cited from earlier work
[6] = tested on: rat closed femur fracture model; settings: in vivo
Excerpt: Experimental treatment group values were compared to the no drug values using a χ^2 analysis. Significant differences are noted with an asterisk (P<0.01).
Pin slippage is dislodgement of the intramedullary stainless steel rod used to stabilize the fracture and permit the rat to weight-bear on the fractured femur. Once fracture stability was lost, the rat was euthanized since the rat could no longer weight-bear on the femur and since the callus would be re-injured and thus alter healing. […] Animals with these complications were excluded.

COX-2 = COX-2 (Homo sapiens, UniProt P35354); settings: cited from earlier work
Sequence of COX-2 (P35354 18-604): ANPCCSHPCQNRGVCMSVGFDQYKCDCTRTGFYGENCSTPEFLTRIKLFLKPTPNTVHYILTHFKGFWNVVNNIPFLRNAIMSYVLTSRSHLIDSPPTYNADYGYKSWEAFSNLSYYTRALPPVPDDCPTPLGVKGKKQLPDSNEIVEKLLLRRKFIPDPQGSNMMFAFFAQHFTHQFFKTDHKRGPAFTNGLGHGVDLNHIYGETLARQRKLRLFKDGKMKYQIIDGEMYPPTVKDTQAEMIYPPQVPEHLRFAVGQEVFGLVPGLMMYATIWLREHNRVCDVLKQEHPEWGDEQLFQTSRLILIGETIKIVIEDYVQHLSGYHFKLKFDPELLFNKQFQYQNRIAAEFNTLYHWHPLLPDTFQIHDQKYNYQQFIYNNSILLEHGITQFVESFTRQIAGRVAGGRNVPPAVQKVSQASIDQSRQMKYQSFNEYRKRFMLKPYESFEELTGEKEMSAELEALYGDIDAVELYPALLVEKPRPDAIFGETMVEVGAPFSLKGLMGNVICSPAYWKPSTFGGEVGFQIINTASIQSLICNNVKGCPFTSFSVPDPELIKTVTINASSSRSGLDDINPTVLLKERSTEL

[7] = 6 weeks post-fracture, no drug 89
[8] = 8 weeks post-fracture, no drug 88
[9] = 8 weeks post-fracture, no drug 101

Row | Structure (SMILES) | estimated plasma half-life [1] | normalized shear stress ([2]; 6 weeks post-fracture) [%] | normalized torsional rigidity [2, 7] [%] | Shear Modulus, mean ([2]; 4 wks) [GPa] | Peak Torque (Tmax), mean ([2]; 4 wks) [Nmm] | Shear Modulus, mean ([2]; 6 wks) [GPa] | Peak Torque (Tmax), mean ([2]; 6 wks) [Nmm] | Shear Modulus, mean ([2]; 8 wks) [GPa] | Peak Torque (Tmax), mean ([2]; 8 wks) [Nmm] | Mal-Union (Stage III), frequency [2] | Non-Union (Stage I/II), frequency [2] | Union (Stage IV), frequency [2] | average radiograph score (union 1 point, mal-union 0.5 points, non-union 0 points) [3] | normalized maximum shear stress ([2]; 8 weeks post-fracture) | normalized torsional rigidity [2, 8] | normalized peak torque [2, 9] | effect on fracture healing at the dose and treatment regime used [2] | histology of the healing femur fractures compared to untreated control rat [4] | cartilage in the fracture callus [4] | healing of fractured femurs by histology [4] | also measured
1 | Cc1ccc(-c2cc(C(F)(F)F)nn2-c2ccc(S(N)(=O)=O)cc2)cc1 [Celecoxib, celecoxib] | approximately 4 hours | 22 | 50 | 0.3 | 302 | 0.9 | 567 | 1.7 | 620 | 3 | 3 | 0 | 0.49 |  |  |  |  |  |  |  | rats tested whose fractured femurs healed as mal-unions rather than non-unions ([2]; rat, in vivo): approximately 50%
2 | COc1ccc2c(c1)c(CC(=O)O)c(C)n2C(=O)c1ccc(Cl)cc1 [Indomethacin, indomethacin] |  | 15 | 34 | 0.3 | 417 | 0.4 | 357 | 1.8 | 469 | 1 | 1 | 6 | 0.54 | not significantly different | not significantly different | not significantly different | delays, but does not prevent fracture healing | gross abnormalities | presence of cartilage | appeared to be healing | normalized peak torque ([2]; 6 weeks post-fracture, no drug 77): 46%; bridging of the fracture gap (time post fracture) ([3]; radiography, untreated rats approximately 4-5 weeks): 5-6 weeks
3 | CS(=O)(=O)c1ccc(C2=C(c3ccccc3)C(=O)OC2)cc1 [Rofecoxib, rofecoxib] | ~5 h |  |  | 0.2 | 250 | 0.3 | 383 | 0.5 | 338 | 1 | 4 | 0 | 0.32 | 18% | 31% | 50% | stops fracture healing | gross abnormalities | little or no cartilage was evident | no further healing was evident | mechanical properties of the fractured femurs compared to no drug rats ([2]; rofecoxib: 8 weeks post-fracture, all values measured or derived): significantly less; plasma half-life [5]: 10 to 17 h; bone resorption at the distal ends of the fracture bones ([4]; rat, in vivo): massive bone resorption event; infection rate as compared to the no drug rats [6]: statistically significant higher; pin slippage, rats having to be euthanized prior to the endpoint ([6]; male, Sprague-Dawley): ≤ 30%; formation of an X-ray dense hard callus ([3]; 2 and 4 week post-fracture radiographs): did not prevent; original fracture on radiograph ([3]; after 8 weeks): still plainly evident; selectivity for COX-2 relative to COX-1 (COX-2): ~35 fold
